Measured values from patent US20260091123A1, “COMBINATION OF ANTI-B7-H3 ANTIBODY-DRUG CONJUGATE AND ATR INHIBITOR OR ATM INHIBITOR” (DAIICHI SANKYO COMPANY, LIMITED, priority 2023, published 2026).

Legend:
[1] = system: human prostate carcinoma epithelial cell line, 22Rv1; experiment: In vivo antitumor activity, combination with ATM inhibitor, 22Rv1 xenograft (Test Example 5); design: species or system mice; settings: day 29
Experimental: All animal experiments were performed in accordance with the in-house guidelines of the Institutional Animal Care and Use Committee of Daiichi Sankyo Co., Ltd. The human prostate carcinoma epithelial cell line, 22Rv1 was purchased from American Type Culture Collection (ATCC) and cultured in RPMI 1640 Medium (ATCC modification) (Thermo Fisher Scientific) supplemented with 10% heat-inactivated fetal bovine serum (FBS, cytiva) at 37° C. in a humidified 5% CO2 atmosphere. On the day of cancer cell inoculation, 22Rv1 cells were trypsinized, washed with D-PBS, and then resuspended in D-PBS at a concentration of 5×10^7 cells/mL. Castrated male NSG mice (NOD.Cg-Prkdc^scid Il2rg^tm1Wj1/SzJ, 6 weeks of age, The Jackson Laboratory Japan, Inc.) were subcutaneously inoculated with 22Rv1 cells (5×10^6 cells/mouse) into the right flank. […] Vehicle control • Group 2: AZD1390 20 mg/kg • Group 3: […] A (10 mmol/L histidine buffer [pH5.9] containing 9% sucrose and 0.02% polysorbate 20) to prepare a 0.3 mg/mL dosing solution. To prepare a 2.0 mg/mL dosing solution, AZD1390 was dissolved in Soln. […] The volume of each dosing solution to be administered was calculated from the individual body weight measured on the day of dosing. […] Tumor length and tumor width were measured with a digital caliper. Tumor volume and tumor growth inhibition (TGI) were calculated by the following formulas: […] […]

[2] = system: human prostate carcinoma epithelial cell line, 22Rv1; experiment: In vivo antitumor activity, combination with ATR inhibitor, 22Rv1 xenograft (Test Example 4); design: species or system mice; settings: day 24
Experimental: All animal experiments were performed in accordance with the in-house guidelines of the Institutional Animal Care and Use Committee of Daiichi Sankyo Co., Ltd. […] Vehicle control • Group 2: AZD6738 25 mg/kg • Group 3: […] A (10 mmol/L histidine buffer [pH5.9] containing 9% sucrose and 0.02% polysorbate 20) to prepare a 0.3 mg/mL dosing solution. […] Then, propylene glycol (40% [v/v] of total volume of the dosing solution) was added to the solution. After mixing with a magnetic stirrer well, water for injection (50% [v/v] of total volume of the dosing solution) was added to the solution, and then the solution was further mixed well with a magnetic stirrer. The volume of each dosing solution to be administered was calculated based on the individual body weight measured on the day of dosing. Soln. […] Soln. […] Tumor length and tumor width were measured with a digital caliper. Tumor volume and tumor growth inhibition (TGI) were calculated by the following formulas: […] Dunnett's test was used to compare tumor volumes in monotherapy groups with those in the vehicle control and to compare tumor volumes in monotherapy groups with those in the combination group. […] The following calculation of TGI and statistical analyses were performed using data except for the excluded mouse in Group 4.

| SMILES | tumor growth inhibition (TGI) ([1]; 22Rv1 in castrated male NSG mice, AZD1390 20 mg/kg orally, conjugate (1) 3 mg/kg iv days 0 and 14) [%] | tumor growth / antitumor activity compared with the vehicle control ([1]; monotherapies, Dunnett's test) | tumor growth inhibition (TGI) ([2]; 22Rv1 in castrated male NSG mice, AZD6738 25 mg/kg orally twice a day, conjugate (1) 3 mg/kg iv days 0 and 15) [%] | tumor growth compared with the vehicle control ([2]; monotherapies, Dunnett's test) |
| --- | --- | --- | --- | --- |
| CC(C)n1c(=O)n(C)c2cnc3cc(F)c(-c4ccc(OCCCN5CCCCC5)nc4)cc3c21 [AZD1390] | 14 | no statistically significant difference in antitumor activity |  |  |
| C[C@@H]1COCCN1c1cc(C2([S@](C)(=N)=O)CC2)nc(-c2cc[nH]c3nccc2-3)n1 [AZD6738] |  |  | 29 | significantly inhibited tumor growth |
